# Patent publication US11603552B2 (priority 2020, dated 2023)
# Entries after “also recorded” stand apart in the source; their conditions may differ.
# Experiments:
# SARS PLpro = assay type: biochemical
# SARS-2 = settings: cited from earlier work
# [1] = system: endogenous enzymes present in crude tongue scrape lysate; assay type: biochemical, human
# PLpro from SARS-CoV-1 = PLpro from SARS-CoV-1 (Severe acute respiratory syndrome coronavirus, UniProt P0C6X7)
# MERS = settings: cited from earlier work
# SARS-1 = settings: cited from earlier work
# [2] = biological target: MERS papain-like protease (recombinant) (Middle East respiratory syndrome-related coronavirus, UniProt K9N7C7)
# Sequence of MERS papain-like protease (recombinant) (K9N7C7 1552-1823 limits assumed): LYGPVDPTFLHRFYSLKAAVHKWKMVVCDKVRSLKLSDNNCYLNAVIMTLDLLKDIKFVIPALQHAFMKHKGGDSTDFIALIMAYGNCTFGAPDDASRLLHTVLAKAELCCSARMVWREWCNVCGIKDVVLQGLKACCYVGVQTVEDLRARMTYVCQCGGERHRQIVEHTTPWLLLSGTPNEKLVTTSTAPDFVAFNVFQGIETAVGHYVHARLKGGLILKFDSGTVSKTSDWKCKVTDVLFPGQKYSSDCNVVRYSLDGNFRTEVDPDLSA
# [3] = biological target: SARS-2 papain-like protease (recombinant) (Severe acute respiratory syndrome coronavirus 2, UniProt P0DTD1)
# MERS PLpro = MERS PLpro (Middle East respiratory syndrome-related coronavirus, UniProt K9N7C7)
# Sequence of MERS PLpro (K9N7C7 1552-1823 limits assumed): as above
# [4] = system: human cells infected with OC43 coronavirus; assay type: cell-based
# PLpro from SARS-CoV-2 = PLpro from SARS-CoV-2 (Severe acute respiratory syndrome coronavirus 2, UniProt P0DTD1)
# [5] = biological target: SARS-1 papain-like protease (recombinant) (Severe acute respiratory syndrome coronavirus, UniProt P0C6X7)
# [6] = system: human cells infected with NL63 coronavirus; assay type: cell-based; settings: NL63, viral enzyme, in vivo (infected human cell lysate), after 15 minutes of incubation
# NL63 PLP2 (recombinant) = NL63 PLP2 (recombinant) (Human coronavirus NL63, UniProt P0C6X5); assay type: biochemical; set-up: cleavage of papain-like protease substrate: key to the marks not given beside the values
# Sequence of NL63 PLP2 (recombinant) (P0C6X5 1640-1886 limits assumed): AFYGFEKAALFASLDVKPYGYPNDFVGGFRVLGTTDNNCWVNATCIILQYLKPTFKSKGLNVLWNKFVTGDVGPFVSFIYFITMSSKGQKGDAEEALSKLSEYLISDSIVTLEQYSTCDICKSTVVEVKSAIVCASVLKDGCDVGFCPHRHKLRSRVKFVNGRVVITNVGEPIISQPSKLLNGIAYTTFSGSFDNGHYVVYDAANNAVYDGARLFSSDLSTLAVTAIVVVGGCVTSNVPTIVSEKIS
# human UCH-L3 = human UCH-L3 (Homo sapiens, UniProt P15374); assay type: biochemical
# Sequence of human UCH-L3 (P15374 whole entry, looked up): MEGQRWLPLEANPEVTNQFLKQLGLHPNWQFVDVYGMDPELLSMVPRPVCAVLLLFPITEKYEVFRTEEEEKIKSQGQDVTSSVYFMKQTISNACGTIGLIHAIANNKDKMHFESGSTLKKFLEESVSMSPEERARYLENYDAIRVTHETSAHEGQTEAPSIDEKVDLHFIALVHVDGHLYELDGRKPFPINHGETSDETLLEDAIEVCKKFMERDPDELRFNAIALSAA
substance,measurement,setting,value
Ac-Abu(Bth)-Dap-G-G (SEQ ID NO. 9),specific cleavage by SARS PLpro (not by MERS PLpro or human deubiquitylating enzymes),SARS PLpro,specifically cleaved
Ac-Tyr-Dap-G-G (SEQ ID NO. 11),specific cleavage by SARS PLpro (not by MERS PLpro or human deubiquitylating enzymes),SARS PLpro,specifically cleaved
Ac-hPhe-Dap-G-G (SEQ ID NO. 12),specific cleavage by SARS PLpro (not by MERS PLpro or human deubiquitylating enzymes),SARS PLpro,specifically cleaved
Ac-hTyr-Phe(guan)-G-G (SEQ ID NO. 10),specific cleavage by SARS PLpro (not by MERS PLpro or human deubiquitylating enzymes),SARS PLpro,specifically cleaved
L-R-G-G (SEQ ID NO. 1),Catalytic rate (Kcat),SARS-2,0.005 s⁻¹
same,cleavage by endogenous enzymes present in lysate,[1],is cleaved; also recorded: slight fluorescence increases
same,cleavage of substrate (qualitative),PLpro from SARS-CoV-1,cleave
same,Catalytic rate (Kcat),MERS,5e-05 s⁻¹
same,Catalytic rate (Kcat),SARS-1,8.5e-05 s⁻¹
same,cleavage of papain-like protease substrate,[2],+
same,cleavage of papain-like protease substrate,[3],+
same,cleavage of substrate (qualitative),MERS PLpro,cleave
same,"cleavage, percent fluorescence increase relative to uninfected cells",[4],22%^2
same,cleavage of substrate (qualitative),PLpro from SARS-CoV-2,cleave
same,cleavage of papain-like protease substrate,[5],+
Tyr-Dap-G-G (SEQ ID NO. 4),cleavage by endogenous enzymes present in lysate,[1],is not cleaved
same,cleavage of papain-like protease substrate,[3],+
same,"cleavage, percent fluorescence increase relative to uninfected cells",[4],34%^3
same,cleavage of papain-like protease substrate,[5],++
Ubiquitin,Catalytic rate (Kcat),SARS-2,1.26 s⁻¹
same,cleavage of substrate (qualitative),PLpro from SARS-CoV-1,cleave
same,Catalytic rate (Kcat),MERS,0.313 s⁻¹
same,Catalytic rate (Kcat),SARS-1,0.167 s⁻¹
same,cleavage of papain-like protease substrate,[2],++
same,cleavage of papain-like protease substrate,[3],++
same,cleavage of substrate (qualitative),MERS PLpro,cleave
same,cleavage of substrate (qualitative),PLpro from SARS-CoV-2,cleave
same,"cleavage, percent fluorescence increase relative to uninfected cells",[6],24%^1
same,cleavage of papain-like protease substrate,[5],++
same,cleavage of papain-like protease substrate,NL63 PLP2 (recombinant),+++
same,times more efficiently cleaved than ISG15,NL63 PLP2 (recombinant),2.5 times
same,times more efficiently cleaved than the tetrapeptide,NL63 PLP2 (recombinant),120 times
hTyr-Dap-G-G (SEQ ID NO. 13),recognition of the substrate,human UCH-L3,do not recognize
